According to patent US20160361314A1, “COMBINATION OF AN ALK INHIBITOR AND A CDK INHIBITOR FOR THE TREATMENT OF CELL PROLIFERATIVE DISEASES” (NOVARTIS AG, priority 2013, published 2016):

Key:
Experiment in all cases: Loewe additivity (CHALICE) synergy screen, CellTiter-Glo viability, 7x7 dose matrix
Assay type in all cases: cell-based
[1] = tested on: LAN-1 human neuroblastoma cells; set-up: key to Synergy score (Mean): Loewe excess inhibition synergy score; >0 synergistic; key to Max Combo Effect: growth inhibition scale; 100 = stasis; conditions: LAN-1 (F1174L)
Experimental: (§1) The synergistic interaction of drug combinations were assessed based on the Loewe Additivity Model using Chalice software [CombinatoRx, Cambridge Mass.]). […] 27:659-66. The software compares the response (% inhibition or % reduction of cell viability) of drug treatment from a combination of two agents to the response of the agents acting alone, against the drug-with-itself dose-additive reference model (the Loewe Additivity Model). Deviations from dose additives can be assessed numerically with a “synergy score” which quantifies the overall strength of combination effect. A synergy score >0 indicates a synergistic combination. In order to ensure only strongly synergistic combinations were selected, the acceptance criteria were set at a higher level. Strongly synergistic combinations were defined as having both a synergy score >2, a synergy score that is twice as large as the background (non-synergy) model would predict, and a maximum efficacy of >100, a value equivalent to stasis, as determined from the growth inhibition calculation.
(§2) After treatment, cell viabilty (quantity of viable cells) for each test mixtures were determined by the CellTiter-Glo® (CTG) luminescent cell viability assay (Promega) described in the Assay section, infra. […] The response to treatment (% reduction of cell viability) was analyzed using Chalice software [CombinatoRx, Cambridge Mass.]). Data evaluation and graph generation were performed using Microsoft Excel software and Chalice software.
The % inhibition (reduction in cell viability) by the drug treatments were recorded in the block In the dose matrix (left); the single agent treatment at the far left column and the bottom row, and the combinations in the remaining 6x6 combination blocks. The differences between the data in the dose matrix and the expected inhibition value generated by the Loewe model were reported in the Loewe Excess matrix. In this Excess Inhibition matrix, synergy is defined as values>0; that is inhibition greater than what would be expected from a simple additive interaction. Antagonism is defined as values<0; that is inhibition […] than what would be expected from a simple additive interaction. The synergy score for the drug treatments were computed taken into account of the entire 6×6 combination blocks within the matrix.
(§3) The combinations were tested in duplicate using a 7×7 dose matrix block in 1536 well format with a cell proliferation readout as described in the Assay section infra.
(§4) All synergy calculations were performed using CHALICE software package from Zalicus and potential synergistic interactions between compound combinations were assessed using the Excess Inhibition 2D matrix according to the Loewe additivity model and were reported as synergy score (Table 10) (Lehar et al). Strongly synergistic combination were identified as having both (1) a synergy score greater than 2, a synergy score that is twice as large as the background (non-synergy) model would predict, and (2) a maximum efficacy of >100, a value roughly equivalent to stasis, as determined from the growth inhibition calculation.
(§5) Cell viability were determined by measuring cellular ATP content using the CellTiter-Glo® (CTG) luminescent cell viability assay (Promega). […] Reduced and enhanced luminescent signal values (responses) were calculated relative to untreated (control) cells, and the calculated signal value proportional to the cell viability.
Synergistic combinations were identified based on the Loewe Addivity Model.

[2] = tested on: IMR-5 human neuroblastoma cells; set-up: key to Max Combo Effect: growth inhibition scale; 100 = stasis
Experimental: as §1, §2, §3, §4, §5
(§6) Synergistic combinations were identified based on the Loewe Addivity Model. To measure the effects of drug combinations on the cell viability, cells from the 20 cell lines listed in Table 1 above were seeded into 1536-well assay plates at a density 300 cells per well in a 7 μL final volume and incubated at 37° C. overnight in a GNF Systems incubator with 95% RH and 5% CO2.
(§7) A six-point dose response curve for the test compounds were prepared in a 384 well ECHO compatible source plate (Labcyte P-05525) with 3-fold serial dilution series. For example, for a six-point dose response curve and a top compound concentration of 5 mM, the concentration of the compounds in the source well were 5 mM, 1.67 mM, 0.56 mM, 0.19 mM, 0.06 mM and 0.02 mM.
(§8) Approximately 18 hours after plating, compound combinations were generated on the fly by transferring 7.5 nL of compound from the pre-diluted source plates using the Labcyte ECHO555 integrated onto the ACP-1 system with replicate plates per cell line; the final DMSO concentration per well was 0.2%. It is noted that the total volume in the wells was 7 μL.
(§9) The well at the intersection of the first column and first row which received no compound was dosed with 2×7.5 nL of DMSO and served as control.

[3] = tested on: NB-SD human neuroblastoma cells; set-up: key to Max Combo Effect: growth inhibition scale; 100 = stasis; conditions: NB-SD (F1174L); for Max Combo Effect: in % (unit assumed)
Experimental: as §1, §2, §3, §4, §5, §6, §7, §8, §9

[4] = tested on: SH-SY5Y human neuroblastoma cells; set-up: key to Max Combo Effect: growth inhibition scale; 100 = stasis; conditions: SH-SY5Y (F1174L)
Experimental: as §1, §2, §3, §4, §5, §6, §7, §8, §9

[5] = tested on: NGP human neuroblastoma cells; set-up: key to Synergy score (Mean): Loewe excess-inhibition synergy score; >0 synergistic, >2 strong; key to Max Combo Effect: growth inhibition scale; 100 = stasis; conditions: NGP (WT)
Experimental: The synergistic interaction of drug combinations were assessed based on the Loewe Additivity Model using Chalice software [CombinatoRx, Cambridge Mass.]). […] The software compares the response (% inhibition or % reduction of cell viability) of drug treatment from a combination of two agents to the response of the agents acting alone, against the drug-with-itself dose-additive reference model (the Loewe Additivity Model). Deviations from dose additives can be assessed numerically with a “synergy score” which quantifies the overall strength of combination effect. A synergy score >0 indicates a synergistic combination. In order to ensure only strongly synergistic combinations were selected, the acceptance criteria were set at a higher level. Strongly synergistic combinations were defined as having both a synergy score >2, a synergy score that is twice as large as the background (non-synergy) model would predict, and a maximum efficacy of >100, a value equivalent to stasis, as determined from the growth inhibition calculation.
as §2, §5, §6, §8, §9
Following compound addition, the plates were returned to the incubator for 120 hours. The effects of the combinations on cellular viability were assessed with the addition of Cell Titer Glo (Promega G7573) using one of the GNF Bottle Valve dispensers on the ACP-1 system; plates were then incubated at room temperature for ten minutes and read on the integrated Perkin Elmer Viewlux (2 second exposure, 2×bin, high sensitivity). The raw data was normalized using the DMSO-treated cell control well within each plate.
All synergy calculations were performed using CHALICE software from Zalicus. […] Potential synergistic interactions between compound combinations were assessed using the Excess Inhibition 2D matrix according to the Loewe Additivity Model and are reported as synergy score.
Compounds were combined with themselves to determine the effect of assay noise on the synergy assessment parameters of the expected dose-additive interaction. Synergistic combination hits (strongly synergistic) were identified as having both a synergy score >2, a synergy score that is twice as large as the background model (non-synergy) would predict, and a maximum efficacy of >100, a value equivalent to stasis, as determined from the growth inhibition calculation.

Cc1cc(Nc2ncc(Cl)c(Nc3ccccc3S(=O)(=O)C(C)C)n2)c(OC(C)C)cc1C1CCNCC1 [Compound A1, 5-chloro-N2-(2-isopropoxy-5-methyl-4-(piperidin-4-yl)phenyl)-N4-[2-(propane-2-sulfonyl)-phenyl]-pyrimidine-2,4-diamine]
Max Combo Effect ([1]; Table 2): 114.2
Synergy score (Mean) ([1]; Table 2, listed as Cmpd A1 Self Cross): 1.011
Synergy score (Mean) ([1]; Table 2, listed as Cpd A1×A1): 1.01
Max Combo Effect ([2]; IMR-5 (ALK WT), Table 2): 80.4
Synergy score (Mean) ([2]; IMR-5 (ALK WT), Table 2): 0.884
Synergy score (Mean) ([3]; Table 2): 0.908
Max Combo Effect ([3]; Table 2): 141.5
Max Combo Effect ([4]; Table 2): 91.5
Synergy score (Mean) ([4]; Table 2): 0.638
Max Combo Effect ([5]; Table 2): 104.1
Synergy score (Mean) ([5]; Table 2): 0.822

Cc1cc(Nc2nc(Nc3ccccc3S(=O)(=O)C(C)C)c3cn[nH]c3n2)c(OC(C)C)cc1C1CCN(C)CC1 [Compound A2, N6-(2-isopropoxy-5-methyl-4-(1-methylpiperidin-4-yl)phenyl)-N4-(2-(isopropylsulfonyl)phenyl)-1H-pyrazolo[3,4-d]pyrimidine-4,6-diamine]
Max Combo Effect ([2]; IMR-5 (WT), Table 3): 179.71
Synergy score (Mean) ([2]; IMR-5 (WT), Table 3): 0.23
Synergy score (Mean) ([3]; Table 3): 1.38
Max Combo Effect ([3]; Table 3): 195.92
Max Combo Effect ([5]; Table 3): 184.04
Synergy score (Mean) ([5]; Table 3): 0.84

C[C@@H](Oc1cc(-c2cnn(C3CCNCC3)c2)cnc1N)c1c(Cl)ccc(F)c1Cl [Compound A3, (R)-3-(1-(2,6-dichloro-3-fluorophenyl)ethoxy)-5-(1-(piperidin-4-yl)-1H-pyrazol-4-yl)pyridin-2-amine, reference compound]
Max Combo Effect ([1]; Table 3): 77.73
Synergy score (Mean) ([1]; Table 3): 0.63
Max Combo Effect ([2]; IMR-5 (WT), Table 3): 99.95
Synergy score (Mean) ([2]; IMR-5 (WT), Table 3): 0.73
Synergy score (Mean) ([3]; Table 3): 0.84
Max Combo Effect ([3]; Table 3): 75.54
Max Combo Effect ([4]; Table 3): 141.61
Synergy score (Mean) ([4]; Table 3): 0.98
Max Combo Effect ([5]; Table 3): 11.39
Synergy score (Mean) ([5]; Table 3): 0.01

CN(C)C(=O)c1cc2cnc(Nc3ccc(N4CCNCC4)cn3)nc2n1C1CCCC1 [Compound B, 7-cyclopentyl-N,N-dimethyl-2-((5-(piperazin-1-yl)pyridin-2-yl)amino)-7H-pyrrolo[2,3-d]pyrimidine-6-carboxamide]
Max Combo Effect ([1]; Table 2): 142.3
Max Combo Effect ([1]; Table 3): 62.78
Synergy score (Mean) ([1]; Table 3): 0.25
Max Combo Effect ([2]; IMR-5 (ALK WT), Table 2): 82.0
Synergy score (Mean) ([2]; IMR-5 (ALK WT), Table 2): 0.788
Max Combo Effect ([2]; IMR-5 (WT), Table 3): 89.02
Synergy score (Mean) ([2]; IMR-5 (WT), Table 3): 1.04
Synergy score (Mean) ([3]; Table 2): 1.476
Max Combo Effect ([3]; Table 2): 98.6
Synergy score (Mean) ([3]; Table 3): 0.97
Max Combo Effect ([3]; Table 3): 61.5
Max Combo Effect ([4]; Table 2): 86.8
Synergy score (Mean) ([4]; Table 2): 0.811
Max Combo Effect ([4]; Table 3): 35.3
Synergy score (Mean) ([4]; Table 3): 0.09
Max Combo Effect ([5]; Table 2): 31.2
Synergy score (Mean) ([5]; Table 2): 0.084
Max Combo Effect ([5]; Table 3): 17.0
Synergy score (Mean) ([5]; Table 3): 0.01
